Assay results from paper PMC4102417 (PLoS Neglected Tropical Diseases, 2014).
Where a name gives a salt, the structure may show the parent alone. Read-outs that look alike come from different tables or passages of the source.

Columns and labels:
[1] = test system: T. cruzi (Tulahuen strain); assay: microbe, parasite or virus in culture; format: cell-based, Trypanosoma cruzi; conditions: for activity at 10 µM / EC50: Trypanosoma cruzi, TULAHUEN, Fibroblast; for activity at 10 µM: read-out: T. cruzi % growth @ 10 uM (Amastigotes)
Method: Compounds were tested against T. cruzi (Tulahuen strain) stably expressing the beta-galactosidase gene as previously described. […] Fibroblasts were plated at a density of 2×10^3 per well in 96 well tissue culture plates. After 24 hours of incubation, 1×10^4 trypomastigotes/well were added to the fibroblasts and incubated for 4 hours before addition of the test compounds from the Spectrum Collection (10 µM final concentration). Cultures were incubated at 37°C for 5 days, then developed with chlorophenol red β-D-galactopyranoside as previously described. The percent inhibition is reported with standard deviation of the mean. […] Z-prime values were calculated for each 96-well plate based on positive (4 wells) and negative controls (4 wells).

3T3 fibroblast cells = assay: cells; format: cell-based, murine; conditions: for activity at 10 µM: Mus musculus, NIH3T3, 72 h, read-out: Mammalian (3T3) cell % growth at 10 uM

Compound	activity at 10 µM ([1]; 120 h, 10 uM, Table S2) [%]	activity at 10 µM (3T3 fibroblast cells; 10 uM, Table S2) [%]	further results
CC(=O)OC1CCC2(C)C(CC(OC(C)=O)C3(C)C4=CC(=O)OC(c5ccoc5)C4(C)CCC23)C1(C)C (stereo not drawn) [3-DEOXO-3beta-ACETOXYDEOXYDIHYDROGEDUNIN, 18-(acetyloxy)-6-(furan-3-yl)-1,7,11,15,15-pentamethyl-4-oxo-5-oxatetracyclo[8.8.0.0^{2,7}.0^{11,16}]octadec-2-en-14-yl acetate]	7.8	100	
COc1c(CC(=O)c2cc3c(cc2O)OC(C)(C)C(O)C3)ccc2c1C=CC(C)(C)O2 (centres unmarked) [DIHYDROMUNDULETONE]	4.4	81.3	
CC(=O)O[C@@H]1CC2C(C)(C)[C@H](O)CC[C@]2(C)C2CC[C@@]3(C)[C@H](c4ccoc4)OC(=O)C4OC43[C@@]21C (stereo partly drawn) [alpha-DIHYDROGEDUNOL]			T. cruzi % growth @ 10 uM (Amastigotes) ([1]; 10 uM, Table S2): 3.8%; Mammalian (3T3) cell % growth at 10 uM (3T3 fibroblast cells; 10 uM, Table S2): 90.8%
COc1c(-c2coc3cc4c(cc3c2=O)CC(OC(C)=O)C(C)(C)O4)ccc2c1C=CC(C)(C)O2 (centres unmarked) [MUNDULONE ACETATE]	4.6	76	
CC(CC(O)C1OC1(C)C)C1CCC2(C)C3=CCC4C(C)(C)C(=O)CCC4(C)C3CCC12C (centres unmarked) [NILOTICIN, 14-[4-(3,3-dimethyloxiran-2-yl)-4-hydroxybutan-2-yl]-2,6,6,11,15-pentamethyltetracyclo[8.7.0.0^{2,7}.0^{11,15}]heptadec-9-en-5-one]	2.2	100	
OCCN1CCN(CCCN2c3ccccc3Sc3ccc(C(F)(F)F)cc32)CC1 [FLUPHENAZINE, 2-(4-{3-[2-(trifluoromethyl)-10H-phenothiazin-10-yl]propyl}piperazin-1-yl)ethan-1-ol]	2.2	100	
O=c1[nH]c(=O)n(C2CC(O)C(CO)O2)cc1F (centres unmarked) [FLOXURIDINE, 5-fluoro-1-[4-hydroxy-5-(hydroxymethyl)oxolan-2-yl]-1,2,3,4-tetrahydropyrimidine-2,4-dione]	2.6	86.2	
CC1(C)C2CC(=O)O[C@@]3(C)C4=CC(=O)O[C@@H](c5ccoc5)[C@]4(C)CCC3[C@@]2(C)C=C[C@H]1O (some centres unmarked) [DEOX[…]]	13.2	82.7	
CC12C=CC(=O)C=C1CCC1C2CCC2(C)C(=O)CCC12 (centres unmarked) [ANDROSTA-1,4-DIEN-3,17-DIONE, 2,15-dimethyltetracyclo[8.7.0.0^{2,7}.0^{11,15}]heptadeca-3,6-diene-5,14-dione]	25.1	72.1	
O=c1c(-c2cc(O)c(O)c(O)c2)coc2cc(O)c(O)c(O)c12 [IRIGENOL, 5,6,7-trihydroxy-3-(3,4,5-trihydroxyphenyl)-4H-chromen-4-one]	5.7	73.7	
CC1(C)C(=O)C2OC2C2(C)C1CC(O)C1(C)C2CCC2(C)C(c3ccoc3)OC(=O)C3OC321 (stereo not drawn) [1,2alpha-EPOXYDEACETOXYDIHYDROGEDUNIN, 7-(furan-3-yl)-20-hydroxy-1,8,12,17,17-pentamethyl-3,6,14-trioxahexacyclo[9.9.0.0^{2,4}.0^{2,8}.0^{12,18}.0^{13,15}]icosane-5,16-dione]	7.8	77.3	
COc1ccc(-c2oc3ccccc3c(=O)c2O)cc1OC [3-HYDROXY-3',4'-DIMETHOXYFLAVONE]	5.2	99.2	
CC(=O)OC1CCC2(C)C3=C(CCC2C1(C)C)C1(C)CCC(C(C)CCC=C(C)C)C1(C)CC3 (centres unmarked) [EUPHOL ACETATE, 2,6,6,11,15-pentamethyl-14-(6-methylhept-5-en-2-yl)tetracyclo[8.7.0.0^{2,7}.0^{11,15}]heptadec-1(10)-en-5-yl acetate]	12	87.6	
CCN(CCCCOC(=O)c1ccc(OC)c(OC)c1)C(C)Cc1ccc(OC)cc1 (centres unmarked) [MEBEVERINE, 4-{ethyl[1-(4-methoxyphenyl)propan-2-yl]amino}butyl 3,4-dimethoxybenzoate]	4.1	92.3	
Clc1ccc2c(c1)C(N1CCNCC1)=Nc1ccccc1O2 [AMOXAPINE, 13-chloro-10-(piperazin-1-yl)-2-oxa-9-azatricyclo[9.4.0.0^{3,8}]pentadeca-1(15),3,5,7,9,11,13-heptaene]	11.7	98	
Clc1ccc(COC(Cn2ccnc2)c2ccc(Cl)cc2Cl)cc1 (centres unmarked) [ECONAZOLE, 1-{2-[(4-chlorophenyl)methoxy]-2-(2,4-dichlorophenyl)ethyl}-1H-imidazole]	2.4	100	

Compound	activity at 10 µM ([1]; 120 h, 10 uM, Table S2) [%]	activity at 10 µM (3T3 fibroblast cells; 10 uM, Table S2) [%]	further results
CCCCCCCC/C=C/CCCCCCCCOP(=O)([O-])OCC[N+](C)(C)C [ELAIDYLPHOSPHOCHOLINE, (9E)-octadec-9-en-1-yl [2-(trimethylazaniumyl)ethyl] phosphate]	5	93.7	
CC1=CC(=O)C2C(C)(C)CCCC2(C)C1(O)CCc1ccoc1 (centres unmarked) [SOLIDAGENONE, 4-[2-(furan-3-yl)ethyl]-4-hydroxy-3,4a,8,8-tetramethyl-1,4,4a,5,6,7,8,8a-octahydronaphthalen-1-one]	15.1	75.8	
CCOc1ccc(Cc2nccc3cc(OCC)c(OCC)cc23)cc1OCC [ETHAVERINE, 1-[(3,4-diethoxyphenyl)methyl]-6,7-diethoxyisoquinoline]	3.7	95.1	
CC(C)C(C)/C=C/C(C)C1CCC2C3=CC=C4CC(O)CCC4(C)C3CCC21C (centres unmarked) [ERGOSTEROL, 14-[(3E)-5,6-dimethylhept-3-en-2-yl]-2,15-dimethyltetracyclo[8.7.0.0^{2,7}.0^{11,15}]heptadeca-7,9-dien-5-ol]	6	99.6	
O=c1c(-c2ccc(O)cc2)coc2cc(O)cc(O)c12 [GENISTEIN, 5,7-dihydroxy-3-(4-hydroxyphenyl)-4H-chromen-4-one]	6.4	100	
O=c1cc(-c2ccc(O)cc2)oc2cc(O)cc(O)c12 [APIGENIN, 5,7-dihydroxy-2-(4-hydroxyphenyl)-4H-chromen-4-one]	17.7	73.6	
COc1cc(NC(C)CCCN)c2ncccc2c1 (centres unmarked) [Primaquine, N-(5-aminopentan-2-yl)-6-methoxyquinolin-8-amine; bis(phosphoric acid)]	4.7	91.1	EC50 ([1]; 120 h, intracellular amastigotes, 5 days, separate assays separated by semicolons, read-out: T. cruzi EC50): 300 nM
COc1cc2nc(N3CCN(C(=O)c4ccco4)CC3)nc(N)c2cc1OC [PRAZOSIN HYDROCHLORIDE, 2-{4-[(furan-2-yl)carbonyl]piperazin-1-yl}-6,7-dimethoxyquinazolin-4-amine hydrochloride]	1.8	70.7	EC50 ([1]; Table S2, amastigotes, read-out: T. cruzi EC50): 8360 nM; EC50 ([1]; read-out: T. cruzi EC50): < 10000 nM
C=CC(C)(O)CCC1C(=C)CCC2C(C)(CO)CCCC12C (stereo not drawn) [EPI(13)TORULOSOL, 5-[5-(hydroxymethyl)-5,8a-dimethyl-2-methylidene-decahydronaphthalen-1-yl]-3-methylpent-1-en-3-ol]	14.5	86.1	
CC(=O)O[C@H]1CC[C@]2(C)C(C[C@H](OC(C)=O)[C@]3(C)C4=CC(=O)OC(c5ccoc5)[C@@]4(C)CCC23)C1(C)C (stereo partly drawn) [3beta,7beta-[…]]	2.5	72.2	
CC(=O)[C@H]1CC[C@H]2[C@@H]3CC[C@H]4C[C@@H](O)CC[C@]4(C)[C@H]3CC[C@]12C [ALLOPREGNANOLONE, 1-[(1S,2S,5S,7S,10R,11S,14S,15S)-5-hydroxy-2,15-dimethyltetracyclo[8.7.0.0^{2,7}.0^{11,15}]heptadecan-14-yl]ethan-1-one]	3.7	100	
CC1(C)C(=O)C=CC2(C)C1CC(O)C1(C)C2CCC2(C)C(c3ccoc3)OC(=O)C3OC321 (centres unmarked) [DEACETYLGEDUNIN, 7-(furan-3-yl)-19-hydroxy-1,8,12,16,16-pentamethyl-3,6-dioxapentacyclo[9.8.0.0^{2,4}.0^{2,8}.0^{12,17}]nonadec-13-ene-5,15-dione]	4.4	76	
CNCCC=C1c2ccccc2CCc2ccccc21 [NORTRIPTYLINE, methyl(3-{tricyclo[9.4.0.0^{3,8}]pentadeca-1(15),3,5,7,11,13-hexaen-2-ylidene}propyl)amine]			activity at 10 µM ([1]; 120 h): 9.7%; EC50 ([1]; read-out: T. cruzi EC50 (nM)): 5180 nM; activity at 10 µM (3T3 fibroblast cells): 100%
CN(C)CCCN1c2ccccc2Sc2ccccc21 [PROMAZINE, dimethyl[3-(10H-phenothiazin-10-yl)propyl]amine hydrochloride]	9.2	98.7	
CCOC(=O)C(CCc1ccccc1)NC1CCc2ccccc2N(CC(=O)O)C1=O (centres unmarked) [BENAZEPRIL HYDROCHLORIDE, 2-{3-[(1-ethoxy-1-oxo-4-phenylbutan-2-yl)amino]-2-oxo-2,3,4,5-tetrahydro-1H-1-benzazepin-1-yl}acetic acid hydrochloride]	1	66.8	
CN1CCC(=C2c3ccccc3Sc3ccccc32)CC1 [PIMETHIXENE, 1-methyl-4-(9H-thioxanthen-9-ylidene)piperidine]	3.9	98.5	
